{"source": "patent US9980943B2", "about": "“Methods of treating muscular dystrophy” (BOARD OF REGENTS OF THE NEVADA SYSTEM OF HIGHER EDUCATION, …, priority 2013, dated 2018)", "assay_type_in_all_cases": "cell-based, mouse", "key": {"[1]": {"test_system": "α7 integrin (LacZ reporter in α7βgal+/− myoblasts)", "experiment": "Myoblast α7+/LacZ integrin FDG assay (Burkin assay in myoblasts, 96-well)", "settings": "96-well; for Burkin Assay in Myoblasts, signal relative to DMSO: α7+/LacZ myoblasts; for Burkin Assay in Myoblasts, value relative to DMSO: SU9516 analogs, N=3-6"}, "[2]": {"test_system": "α7 integrin (LacZ reporter in α7+/LacZ myotubes)", "experiment": "Myotube α7 integrin FDG assay (Burkin assay in myotubes, 96-well)", "settings": "for Burkin Assay in Myotubes, value relative to DMSO: SU9516 analogs, 96-well, N=3-6"}, "[3]": {"test_system": "β-galactosidase in CMV-LacZ C2C12 myoblasts", "experiment": "CMV-LacZ secondary screen in C2C12 myoblasts (β-Gal stabilizing assay)", "settings": "for CMV-LACZ in Myoblasts (β-galactosidase activity relative to DMSO): CMV-LacZ C2C12 myoblasts; for CMV-LACZ in Myoblasts, value relative to DMSO: SU9516 analogs, C2C12 CMV-LacZ, N=2", "summary_of_the_method": "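C2C12 myoblasts stably carrying a linearized CMV-driven LacZ construct, clone chosen by β-gal level in the myoblast FDG assay. Compounds tested in 96-well dose-response at 0.5, 1, 5, 10, 20 and 40 μM, N=2 replicates per point, to detect β-gal stabilization.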"}, "[4]": {"test_system": "β-galactosidase in CMV-LacZ C2C12 myotubes", "experiment": "CMV-LacZ secondary screen in C2C12 myotubes (β-Gal stabilizing assay)", "settings": "for CMV-LACZ in Myotubes, signal relative to DMSO: C2C12 CMV-LacZ myotubes, fold relative to DMSO; for CMV-LACZ in Myotubes, value relative to DMSO: SU9516 analogs, C2C12 CMV-LacZ, N=2", "summary_of_the_method": "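Stable CMV-LacZ C2C12 clone; six-point curve 0.5–40 μM; duplicates.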"}}, "data": [{"smiles": "O=C(NCCc1ccccc1)C1CCC(=O)N1C1CCCC1", "note": "(stereo not drawn) [MLS001200665-01]", "values": [{"measurement": "Burkin Assay in Myoblasts, signal relative to DMSO", "setting": "[1]; 0.5 uM", "result": 0.8982}, {"measurement": "Burkin Assay in Myoblasts, signal relative to DMSO", "setting": "[1]; 1 uM", "result": 0.8539}, {"measurement": "Burkin Assay in Myoblasts, signal relative to DMSO", "setting": "[1]; 5 uM", "result": 1.003}, {"measurement": "Burkin Assay in Myoblasts, signal relative to DMSO", "setting": "[1]; 10 uM", "result": 1.245}, {"measurement": "Burkin Assay in Myoblasts, signal relative to DMSO", "setting": "[1]; 20 uM", "result": 1.143}, {"measurement": "Burkin Assay in Myoblasts, signal relative to DMSO", "setting": "[1]; 40 uM", "result": 1.029}, {"measurement": "Burkin Assay in Myotubes, α7 integrin LacZ reporter signal relative to DMSO", "setting": "[2]; 0.5 uM", "result": 1.031}, {"measurement": "Burkin Assay in Myotubes, α7 integrin LacZ reporter signal relative to DMSO", "setting": "[2]; 1 uM", "result": 0.8461}, {"measurement": "Burkin Assay in Myotubes, α7 integrin LacZ reporter signal relative to DMSO", "setting": "[2]; 5 uM", "result": 1.091}, {"measurement": "Burkin Assay in Myotubes, α7 integrin LacZ reporter signal relative to DMSO", "setting": "[2]; 10 uM", "result": 1.126}, {"measurement": "Burkin Assay in Myotubes, α7 integrin LacZ reporter signal relative to DMSO", "setting": "[2]; 20 uM", "result": 0.8365}, {"measurement": "Burkin Assay in Myotubes, α7 integrin LacZ reporter signal relative to DMSO", "setting": "[2]; 40 uM", "result": 0.8877}, {"measurement": "CMV-LACZ in Myoblasts (β-galactosidase activity relative to DMSO)", "setting": "[3]; 0.5 uM", "result": 1.1043}, {"measurement": "CMV-LACZ in Myoblasts (β-galactosidase activity relative to DMSO)", "setting": "[3]; 1 uM", "result": 0.9783}, {"measurement": "CMV-LACZ in Myoblasts (β-galactosidase activity relative to DMSO)", "setting": "[3]; 5 uM", "result": 0.9398}, {"measurement": "CMV-LACZ in Myoblasts (β-galactosidase activity relative to DMSO)", "setting": "[3]; 10 uM", "result": 1.0036}, {"measurement": "CMV-LACZ in Myoblasts (β-galactosidase activity relative to DMSO)", "setting": "[3]; 20 uM", "result": 0.7152}, {"measurement": "CMV-LACZ in Myoblasts (β-galactosidase activity relative to DMSO)", "setting": "[3]; 40 uM", "result": 0.9937}, {"measurement": "CMV-LACZ in Myotubes, signal relative to DMSO", "setting": "[4]; 0.5 uM", "result": 1.1543}, {"measurement": "CMV-LACZ in Myotubes, signal relative to DMSO", "setting": "[4]; 1 uM", "result": 0.9695}, {"measurement": "CMV-LACZ in Myotubes, signal relative to DMSO", "setting": "[4]; 5 uM", "result": 1.1274}, {"measurement": "CMV-LACZ in Myotubes, signal relative to DMSO", "setting": "[4]; 10 uM", "result": 0.9662}, {"measurement": "CMV-LACZ in Myotubes, signal relative to DMSO", "setting": "[4]; 20 uM", "result": 1.1800}, {"measurement": "CMV-LACZ in Myotubes, signal relative to DMSO", "setting": "[4]; 40 uM", "result": 1.2706}]}, {"smiles": "Cc1ccc2c(c1)/C(=C/c1ccccc1F)C(=O)N2", "note": "[MLS001202330-01]", "values": [{"measurement": "Burkin Assay in Myoblasts, value relative to DMSO", "setting": "[1]; 0.5 uM", "result": 0.9738}, {"measurement": "Burkin Assay in Myoblasts, value relative to DMSO", "setting": "[1]; 1 uM", "result": 1.028}, {"measurement": "Burkin Assay in Myoblasts, value relative to DMSO", "setting": "[1]; 5 uM", "result": 0.9558}, {"measurement": "Burkin Assay in Myoblasts, value relative to DMSO", "setting": "[1]; 10 uM", "result": 0.9341}, {"measurement": "Burkin Assay in Myoblasts, value relative to DMSO", "setting": "[1]; 20 uM", "result": 0.8305}, {"measurement": "Burkin Assay in Myoblasts, value relative to DMSO", "setting": "[1]; 40 uM", "result": 0.6468}, {"measurement": "Burkin Assay in Myotubes, value relative to DMSO", "setting": "[2]; 0.5 uM", "result": 0.9709}, {"measurement": "Burkin Assay in Myotubes, value relative to DMSO", "setting": "[2]; 1 uM", "result": 0.9174}, {"measurement": "Burkin Assay in Myotubes, value relative to DMSO", "setting": "[2]; 5 uM", "result": 0.9123}, {"measurement": "Burkin Assay in Myotubes, value relative to DMSO", "setting": "[2]; 10 uM", "result": 1.017}, {"measurement": "Burkin Assay in Myotubes, value relative to DMSO", "setting": "[2]; 20 uM", "result": 0.6303}, {"measurement": "Burkin Assay in Myotubes, value relative to DMSO", "setting": "[2]; 40 uM", "result": 0.6207}, {"measurement": "CMV-LACZ in Myoblasts, value relative to DMSO", "setting": "[3]; 0.5 uM", "result": 0.7417}, {"measurement": "CMV-LACZ in Myoblasts, value relative to DMSO", "setting": "[3]; 1 uM", "result": 0.9325}, {"measurement": "CMV-LACZ in Myoblasts, value relative to DMSO", "setting": "[3]; 5 uM", "result": 1.0099}, {"measurement": "CMV-LACZ in Myoblasts, value relative to DMSO", "setting": "[3]; 10 uM", "result": 0.9082}, {"measurement": "CMV-LACZ in Myoblasts, value relative to DMSO", "setting": "[3]; 20 uM", "result": 0.9511}, {"measurement": "CMV-LACZ in Myoblasts, value relative to DMSO", "setting": "[3]; 40 uM", "result": 0.7619}, {"measurement": "CMV-LACZ in Myotubes, value relative to DMSO", "setting": "[4]; 0.5 uM", "result": 0.8314}, {"measurement": "CMV-LACZ in Myotubes, value relative to DMSO", "setting": "[4]; 1 uM", "result": 0.9562}, {"measurement": "CMV-LACZ in Myotubes, value relative to DMSO", "setting": "[4]; 5 uM", "result": 0.9600}, {"measurement": "CMV-LACZ in Myotubes, value relative to DMSO", "setting": "[4]; 10 uM", "result": 0.8717}, {"measurement": "CMV-LACZ in Myotubes, value relative to DMSO", "setting": "[4]; 20 uM", "result": 0.9168}, {"measurement": "CMV-LACZ in Myotubes, value relative to DMSO", "setting": "[4]; 40 uM", "result": 0.8242}]}, {"smiles": "Cc1ccc2c(c1)/C(=C/c1ccccc1)C(=O)N2", "note": "[MLS001202354-01]", "values": [{"measurement": "Burkin Assay in Myoblasts, value relative to DMSO", "setting": "[1]; 0.5 uM", "result": 1.077}, {"measurement": "Burkin Assay in Myoblasts, value relative to DMSO", "setting": "[1]; 1 uM", "result": 1.023}, {"measurement": "Burkin Assay in Myoblasts, value relative to DMSO", "setting": "[1]; 5 uM", "result": 1.036}, {"measurement": "Burkin Assay in Myoblasts, value relative to DMSO", "setting": "[1]; 10 uM", "result": 1.073}, {"measurement": "Burkin Assay in Myoblasts, value relative to DMSO", "setting": "[1]; 20 uM", "result": 0.516}, {"measurement": "Burkin Assay in Myoblasts, value relative to DMSO", "setting": "[1]; 40 uM", "result": 0.4275}, {"measurement": "Burkin Assay in Myotubes, value relative to DMSO", "setting": "[2]; 0.5 uM", "result": 0.8459}, {"measurement": "Burkin Assay in Myotubes, value relative to DMSO", "setting": "[2]; 1 uM", "result": 0.9022}, {"measurement": "Burkin Assay in Myotubes, value relative to DMSO", "setting": "[2]; 5 uM", "result": 0.9545}, {"measurement": "Burkin Assay in Myotubes, value relative to DMSO", "setting": "[2]; 10 uM", "result": 1.069}, {"measurement": "Burkin Assay in Myotubes, value relative to DMSO", "setting": "[2]; 20 uM", "result": 0.5824}, {"measurement": "Burkin Assay in Myotubes, value relative to DMSO", "setting": "[2]; 40 uM", "result": 0.5785}, {"measurement": "CMV-LACZ in Myoblasts, value relative to DMSO", "setting": "[3]; 0.5 uM", "result": 1.2275}, {"measurement": "CMV-LACZ in Myoblasts, value relative to DMSO", "setting": "[3]; 1 uM", "result": 0.9521}, {"measurement": "CMV-LACZ in Myoblasts, value relative to DMSO", "setting": "[3]; 5 uM", "result": 0.9669}, {"measurement": "CMV-LACZ in Myoblasts, value relative to DMSO", "setting": "[3]; 10 uM", "result": 0.9170}, {"measurement": "CMV-LACZ in Myoblasts, value relative to DMSO", "setting": "[3]; 20 uM", "result": 0.8378}, {"measurement": "CMV-LACZ in Myoblasts, value relative to DMSO", "setting": "[3]; 40 uM", "result": 0.7437}, {"measurement": "CMV-LACZ in Myotubes, value relative to DMSO", "setting": "[4]; 0.5 uM", "result": 1.0676}, {"measurement": "CMV-LACZ in Myotubes, value relative to DMSO", "setting": "[4]; 1 uM", "result": 0.9200}, {"measurement": "CMV-LACZ in Myotubes, value relative to DMSO", "setting": "[4]; 5 uM", "result": 0.8910}, {"measurement": "CMV-LACZ in Myotubes, value relative to DMSO", "setting": "[4]; 10 uM", "result": 1.0340}, {"measurement": "CMV-LACZ in Myotubes, value relative to DMSO", "setting": "[4]; 20 uM", "result": 0.7000}, {"measurement": "CMV-LACZ in Myotubes, value relative to DMSO", "setting": "[4]; 40 uM", "result": 0.7863}]}]}
